Tested on: CYP1A1
Experiment: P450-GLO activity assay, CYP1A1 induction in hMSC-derived hepatocytes
Details: inducer for 2 days

SMILES: Cc1ccc2cc3c(ccc4ccccc43)c3c2c1CC3 [3-methylcholanthrene]
- CYP1A1 activity after inducer treatment: induced
